Values of other authors in article PMC4844649, “A first-in-Asian phase 1 study to evaluate safety, pharmacokinetics and clinical activity of VS-6063, a focal adhesion kinase (FAK) inhibitor in Japanese patients with advanced solid tumors” (Cancer Chemotherapy and Pharmacology, 2016).
Where two headings read alike, the source gives them in different places.

Assays:
[1] = design: method as in earlier work; details: at the higher doses, phase 1 dose-escalation ref 11, 12; cited from earlier work
advanced solid tumors = details: cited from earlier work
[2] = tested on: Tregs and CD8 + T cells in the tumor microenvironment; design: method as in PMID 26406376; details: squamous cell carcinoma model ref 17; cited from earlier work

For COc1cc(C(=O)NC2CCN(C)CC2)c(F)cc1Nc1ncc(C(F)(F)F)c(Oc2cccc3c2C(=O)N(C)C3)n1 [BI 853520], the dose-limiting toxicities [1] is given as “both proteinuria and fatigue were dose-limiting (Grade 3)” and the objective radiographic responses (advanced solid tumors; phase 1 ref 11, 12) is given as “No objective radiographic responses”.

In the case of CN(c1ncccc1CNc1nc(Nc2ccc3c(c2)CC(=O)N3)ncc1C(F)(F)F)S(C)(=O)=O [PF-00562271], the objective radiographic responses (advanced solid tumors; phase 1 ref 10) is given as “No objective radiographic responses”.

For CNC(=O)c1ccccc1Nc1cc(Nc2ccc(N3CCOCC3)cc2OC)ncc1C(F)(F)F [VS-4718], the “effect on Tregs and CD8 + T cell-mediated anti-tumor response” value [2] is listed as “drives depletion of Tregs and promotes a CD8 + T cell-mediated anti-tumor response”.

In the case of CONC(=O)c1ccccc1Nc1cc(Nc2cc(C)nn2C(C)C)ncc1Cl [GSK2256098], the objective radiographic responses (advanced solid tumors; phase 1 ref 15) is given as “No objective radiographic responses”.
